# Results published in the NIST ThermoML archive (doi:10.1016/j.jct.2016.01.028).
# ± gives the expanded uncertainty stated by the source.
# Conditions: 102 kPa, Liquid, Frequency=5 MHz, Single path-length method
speed of sound (293.15 K),speed of sound (298.15 K),speed of sound (303.15 K),speed of sound (308.15 K),speed of sound (313.15 K),speed of sound (318.15 K),speed of sound (323.15 K),speed of sound (328.15 K),speed of sound (333.15 K),speed of sound (338.15 K),speed of sound (343.15 K),Compound
1537 ± 2.6 m/s,1516.3 ± 2.6 m/s,1503.7 ± 2.6 m/s,1486.5 ± 2.6 m/s,1471 ± 2.6 m/s,1457 ± 2.6 m/s,1440 ± 2.6 m/s,1424.6 ± 2.6 m/s,1412.8 ± 2.6 m/s,1397.1 ± 2.6 m/s,1381.9 ± 2.6 m/s,CCCCC(=O)[O-].C[NH2+]CCO [2-hydroxy-N-methylethanaminium pentanoate]
1576.8 ± 2.6 m/s,1562.9 ± 2.6 m/s,1548 ± 2.6 m/s,1529.7 ± 2.6 m/s,1511.9 ± 2.6 m/s,1499.4 ± 2.6 m/s,1481.3 ± 2.6 m/s,1467.2 ± 2.6 m/s,1451.2 ± 2.6 m/s,1436.7 ± 2.6 m/s,1419.4 ± 2.6 m/s,CCCC(=O)[O-].C[NH2+]CCO [N-methyl-2-hydroxyethylammonium butanoate]
